Common to all, as to assay type: biochemical
In one assay the target is CDK4/CycD (Homo sapiens (Human), UniProt P11802). The assay can be described thus: CDK4/CycD kinase assay (Caliper microfluidic). As to conditions: at Km for ATP. Here is the method:
(§1) Selected compounds disclosed herein were tested in CDK4/cyclinD1, CDK2/CycA and CDK2/cyclinE kinase assays by Nanosyn (Santa Clara, Calif.) to determine their inhibitory effect on these CDKs. The assays were performed using microfluidic kinase detection technology (Caliper Assay Platform). The compounds were tested in 12-point dose-response format in singlicate at Km for ATP. Phosphoacceptor substrate peptide concentration used was 1 μM for all assays and Staurosporine was used as the reference compound for all assays. Specifics of each assay are as described below:
CDK4/CyclinD1: Enzyme concentration: 1 nM; ATP concentration: 200 μM; Incubation time: 10 hr.

A further assay concerns the target CDK6/CycD3 (Homo sapiens (Human), UniProt Q00534). The assay can be described thus: CDK6/CycD3 kinase assay. Here is the method:
[The procedure below names another target; the source lists this target under the same test.] Selected compounds disclosed herein were tested in CDK4/cyclinD1, CDK2/CycA and CDK2/cyclinE kinase assays by Nanosyn (Santa Clara, Calif.) to determine their inhibitory effect on these CDKs. The assays were performed using microfluidic kinase detection technology (Caliper Assay Platform). The compounds were tested in 12-point dose-response format in singlicate at Km for ATP. Phosphoacceptor substrate peptide concentration used was 1 μM for all assays and Staurosporine was used as the reference compound for all assays.

The target of another assay is CDK2/CycE (Homo sapiens (Human), UniProt P24941). In words: CDK2/CycE kinase assay (Caliper microfluidic). As to conditions: at Km for ATP. The protocol: as §1
CDK2/CyclinE: Enzyme concentration: 0.28 nM; ATP concentration: 100 μM; Incubation time: 1 hr.

Another assay deals with CDK2/CycA (Homo sapiens (Human), UniProt P24941). In words: CDK2/CycA kinase assay (Caliper microfluidic). As to conditions: at Km for ATP. Here is the method:
as §1
CDK2/CyclinA: Enzyme concentration: 0.2 nM; ATP concentration: 50 μM; Incubation time: 3 hr.

The next assay concerns the target CDK5/p35 (Homo sapiens (Human), UniProt Q00535). The assay can be described thus: CDK5/p35 kinase assay.
The next assay addresses CDK5/p25 (Homo sapiens (Human), UniProt Q00535). The assay can be described thus: CDK5/p25 kinase assay.
The next assay deals with CDK7/CycH/MAT1 (Homo sapiens (Human), UniProt P50613). In words: CDK7/CycH/MAT1 kinase assay.
A further assay deals with CDK9/CycT (Homo sapiens (Human), UniProt P50750). In words: CDK9/CycT kinase assay.

The values that follow come from patent US10654831B2, “Antiproliferative pyrimidine-based compounds” (G1 Therapeutics, Inc., priority 2016, dated 2020).

One may read the IC50 as the midpoint of a concentration-inhibition curve. A higher IC50 goes with weaker potency in that assay.

CDK9/CycT, sequence (P50750 whole entry): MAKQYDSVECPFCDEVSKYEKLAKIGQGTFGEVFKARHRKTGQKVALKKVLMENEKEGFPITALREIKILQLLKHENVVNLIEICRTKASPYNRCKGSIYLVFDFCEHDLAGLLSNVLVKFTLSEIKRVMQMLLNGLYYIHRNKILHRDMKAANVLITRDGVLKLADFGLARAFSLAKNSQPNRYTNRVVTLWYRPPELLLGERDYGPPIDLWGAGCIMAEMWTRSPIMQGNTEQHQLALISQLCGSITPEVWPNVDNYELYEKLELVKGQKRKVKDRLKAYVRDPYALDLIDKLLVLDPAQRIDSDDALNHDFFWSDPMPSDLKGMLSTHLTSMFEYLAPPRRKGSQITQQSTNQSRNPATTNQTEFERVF
CDK9/CycT, sequence (O60563 whole entry partner): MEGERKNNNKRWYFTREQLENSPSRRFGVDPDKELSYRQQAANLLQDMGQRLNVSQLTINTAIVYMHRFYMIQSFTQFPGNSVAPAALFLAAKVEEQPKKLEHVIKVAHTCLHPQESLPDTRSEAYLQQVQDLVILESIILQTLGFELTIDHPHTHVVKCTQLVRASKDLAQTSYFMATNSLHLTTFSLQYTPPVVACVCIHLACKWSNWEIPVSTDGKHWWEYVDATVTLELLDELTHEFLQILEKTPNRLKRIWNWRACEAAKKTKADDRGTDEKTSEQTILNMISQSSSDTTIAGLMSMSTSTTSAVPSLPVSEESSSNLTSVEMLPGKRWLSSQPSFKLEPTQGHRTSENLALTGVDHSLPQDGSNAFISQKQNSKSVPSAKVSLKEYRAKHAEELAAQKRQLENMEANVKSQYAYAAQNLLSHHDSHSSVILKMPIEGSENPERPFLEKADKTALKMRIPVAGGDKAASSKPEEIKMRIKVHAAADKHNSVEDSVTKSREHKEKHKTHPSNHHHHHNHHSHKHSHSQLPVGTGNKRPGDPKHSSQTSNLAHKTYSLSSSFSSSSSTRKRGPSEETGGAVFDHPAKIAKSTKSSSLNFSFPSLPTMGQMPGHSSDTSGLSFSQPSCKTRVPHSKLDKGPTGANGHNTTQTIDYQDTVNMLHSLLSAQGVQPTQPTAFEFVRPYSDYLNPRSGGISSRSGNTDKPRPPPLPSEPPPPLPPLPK
CDK5/p35, sequence (Q00535 whole entry): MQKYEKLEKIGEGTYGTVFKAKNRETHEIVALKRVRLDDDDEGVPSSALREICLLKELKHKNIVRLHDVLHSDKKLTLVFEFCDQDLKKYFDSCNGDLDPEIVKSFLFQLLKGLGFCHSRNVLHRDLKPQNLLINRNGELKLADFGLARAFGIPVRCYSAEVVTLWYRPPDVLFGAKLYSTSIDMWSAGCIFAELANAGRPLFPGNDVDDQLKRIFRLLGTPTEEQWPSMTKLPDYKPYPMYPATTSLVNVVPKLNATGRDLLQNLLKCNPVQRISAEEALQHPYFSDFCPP
CDK5/p35, sequence (Q15078 whole entry partner): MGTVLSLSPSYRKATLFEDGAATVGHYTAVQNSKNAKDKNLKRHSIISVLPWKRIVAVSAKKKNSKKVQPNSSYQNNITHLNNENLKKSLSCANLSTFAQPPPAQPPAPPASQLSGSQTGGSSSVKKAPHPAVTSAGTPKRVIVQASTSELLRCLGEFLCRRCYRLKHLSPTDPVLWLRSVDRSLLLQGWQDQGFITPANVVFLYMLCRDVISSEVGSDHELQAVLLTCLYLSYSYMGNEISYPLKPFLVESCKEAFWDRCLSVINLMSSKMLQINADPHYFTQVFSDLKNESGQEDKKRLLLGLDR
CDK5/p25, sequence (Q00535 whole entry): as the sequence (Q00535 whole entry) above
CDK7/CycH/MAT1, sequence (P50613 whole entry): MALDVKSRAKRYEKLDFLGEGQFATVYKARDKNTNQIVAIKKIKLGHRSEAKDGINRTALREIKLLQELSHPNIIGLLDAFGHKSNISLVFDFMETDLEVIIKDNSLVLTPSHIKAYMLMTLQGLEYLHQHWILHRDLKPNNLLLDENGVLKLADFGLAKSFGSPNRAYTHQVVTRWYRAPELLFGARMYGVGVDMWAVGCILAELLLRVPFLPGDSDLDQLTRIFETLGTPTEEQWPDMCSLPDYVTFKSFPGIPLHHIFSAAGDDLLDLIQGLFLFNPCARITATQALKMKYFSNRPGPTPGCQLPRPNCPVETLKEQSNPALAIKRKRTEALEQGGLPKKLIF
CDK7/CycH/MAT1, sequence (P51946 whole entry partner): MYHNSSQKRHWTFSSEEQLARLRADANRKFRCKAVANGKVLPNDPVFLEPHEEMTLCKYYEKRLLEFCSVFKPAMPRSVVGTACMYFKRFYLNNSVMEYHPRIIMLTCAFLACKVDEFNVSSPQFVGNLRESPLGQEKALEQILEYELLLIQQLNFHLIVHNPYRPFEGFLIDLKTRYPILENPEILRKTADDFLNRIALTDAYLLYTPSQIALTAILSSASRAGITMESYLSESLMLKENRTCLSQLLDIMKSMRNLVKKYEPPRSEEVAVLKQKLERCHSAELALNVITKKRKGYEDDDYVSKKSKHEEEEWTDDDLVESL
CDK7/CycH/MAT1, sequence (P51948 whole entry partner): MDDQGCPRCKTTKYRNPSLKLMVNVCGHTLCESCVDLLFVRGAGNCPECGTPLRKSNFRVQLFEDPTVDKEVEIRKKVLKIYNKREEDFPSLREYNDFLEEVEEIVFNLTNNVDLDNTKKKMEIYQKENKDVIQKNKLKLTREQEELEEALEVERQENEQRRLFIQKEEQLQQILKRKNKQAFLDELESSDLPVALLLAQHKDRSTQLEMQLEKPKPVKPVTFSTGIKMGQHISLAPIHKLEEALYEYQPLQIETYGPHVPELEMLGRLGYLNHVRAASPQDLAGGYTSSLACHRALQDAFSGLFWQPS
CDK4/CycD, sequence (P11802 whole entry): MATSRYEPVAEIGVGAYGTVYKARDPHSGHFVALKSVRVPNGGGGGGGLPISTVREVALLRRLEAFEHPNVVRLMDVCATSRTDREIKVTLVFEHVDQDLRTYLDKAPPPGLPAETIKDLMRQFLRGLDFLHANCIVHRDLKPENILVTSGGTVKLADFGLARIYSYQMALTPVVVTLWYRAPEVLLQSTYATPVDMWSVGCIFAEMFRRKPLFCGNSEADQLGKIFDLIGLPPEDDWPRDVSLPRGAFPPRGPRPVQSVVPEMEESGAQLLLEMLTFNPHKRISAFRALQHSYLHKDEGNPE
CDK4/CycD, sequence (P24385 whole entry partner): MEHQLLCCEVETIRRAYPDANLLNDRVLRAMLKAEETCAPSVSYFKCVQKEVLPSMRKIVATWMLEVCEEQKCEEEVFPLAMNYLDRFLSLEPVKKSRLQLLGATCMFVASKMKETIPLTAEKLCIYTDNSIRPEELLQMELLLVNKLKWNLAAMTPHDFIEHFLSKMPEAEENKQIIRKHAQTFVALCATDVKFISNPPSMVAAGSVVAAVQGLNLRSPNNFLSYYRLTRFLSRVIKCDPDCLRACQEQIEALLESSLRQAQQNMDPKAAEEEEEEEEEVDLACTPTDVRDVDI
CDK6/CycD3, sequence (Q00534 whole entry): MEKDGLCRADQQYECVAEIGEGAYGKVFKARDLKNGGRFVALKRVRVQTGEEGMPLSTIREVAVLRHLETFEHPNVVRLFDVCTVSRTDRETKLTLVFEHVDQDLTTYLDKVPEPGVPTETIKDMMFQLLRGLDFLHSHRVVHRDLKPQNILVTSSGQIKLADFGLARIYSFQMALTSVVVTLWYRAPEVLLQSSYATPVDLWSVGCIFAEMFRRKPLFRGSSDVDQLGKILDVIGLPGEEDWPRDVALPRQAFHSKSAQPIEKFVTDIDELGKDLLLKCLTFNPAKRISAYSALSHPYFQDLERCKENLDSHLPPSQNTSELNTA
CDK6/CycD3, sequence (P30281 whole entry partner): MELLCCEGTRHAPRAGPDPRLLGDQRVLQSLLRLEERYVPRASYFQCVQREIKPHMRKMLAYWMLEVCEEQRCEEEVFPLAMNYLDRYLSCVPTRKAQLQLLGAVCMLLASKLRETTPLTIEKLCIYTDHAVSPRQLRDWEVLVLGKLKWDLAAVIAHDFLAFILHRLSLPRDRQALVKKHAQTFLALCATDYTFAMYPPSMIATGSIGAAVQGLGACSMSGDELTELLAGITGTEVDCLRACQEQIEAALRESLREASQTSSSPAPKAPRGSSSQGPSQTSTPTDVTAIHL

Take `CN1CCN(c2ccc(Nc3nccc(N4C(=O)N(Cc5ccccc5)CC45CCCCC5)n3)nc2)CC1` [compound 10, 3-benzyl-1-(2-{[5-(4-methylpiperazin-1-yl)pyridin-2-yl]amino}pyrimidin-4-yl)-1,3-diazaspiro[4.5]decan-2-one]: the IC50 is 2.71 µM on CDK4/CycD; 35.8 µM against CDK6/CycD3; above 100 µM at CDK2/CycE; above 100 µM on CDK2/CycA; above 100 µM at CDK5/p35; above 100 µM against CDK5/p25. In addition, the IC50 against CDK7/CycH/MAT1 and on CDK9/CycT was above 100 µM throughout.

For `CN1CCN(c2ccc(Nc3nccc(N4CCNC(=O)C4)n3)nc2)CC1` [compound 32, 4-(2-{[5-(4-Methylpiperazin-1-yl)pyridin-2-yl]amino}pyrimidin-4-yl)piperazin-2-one], the IC50 against CDK4/CycD is 14.4 µM; at CDK6/CycD3, 51 µM; against CDK9/CycT it was 22.9 µM.

As for `CN1CCN(c2ccc(Nc3nccc(N4C(c5ccoc5)=NCC45CCCCC5)n3)nc2)CC1` [compound 54, 4-(2-(furan-3-yl)-1,3-diazaspiro[4.5]dec-2-en-1-yl)-N-(5-(4-methylpiperazin-1-yl)pyridin-2-yl)pyrimidin-2-amine], the IC50 on CDK4/CycD, on CDK6/CycD3, against CDK2/CycE, against CDK2/CycA, on CDK5/p35 and at CDK5/p25 was above 100 µM in each case. For the same compound, the IC50 at CDK7/CycH/MAT1 and on CDK9/CycT was above 100 µM throughout.

With `CN1CCN(c2ccc(Nc3nccc(N4C(c5ccccc5)=NCC45CCCCC5)n3)nc2)CC1` [compound 53, N-(5-(4-methylpiperazin-1-yl)pyridin-2-yl)-4-(2-phenyl-1,3-diazaspiro[4.5]dec-2-en-1-yl)pyrimidin-2-amine], the IC50 at CDK4/CycD is above 100 µM; against CDK6/CycD3 it was 71.3 µM; on CDK2/CycE it was above 100 µM; on CDK2/CycA, above 100 µM; on CDK5/p35, above 100 µM; on CDK5/p25, above 100 µM. For the same compound, the IC50 against CDK7/CycH/MAT1 and against CDK9/CycT was above 100 µM in each case.

Regarding `CN1CCN(c2ccc(Nc3nccc(N4CC(=O)NCC45CCCCC5)n3)nc2)CC1` [compound 20, 1-(2-{[5-(4-Methylpiperazin-1-yl)pyridin-2-yl]amino}pyrimidin-4-yl)-1,4-diazaspiro[5.5]undecan-3-one], the IC50 was 0.44 µM against CDK4/CycD; 1 µM against CDK6/CycD3; above 100 µM at CDK2/CycE; above 100 µM at CDK2/CycA; 38 µM on CDK5/p35; 39 µM against CDK5/p25. Also, the IC50 against CDK7/CycH/MAT1 was above 100 µM; at CDK9/CycT, 0.75 µM.

With `CC(C)[C@H]1CNC(=O)N1c1ccnc(Nc2ccc(N3CCN(C)CC3)cn2)n1` [compound 46, (5S)-5-Isopropyl-1-(2-{[5-(4-methylpiperazin-1-yl)pyridin-2-yl]amino}pyrimidin-4-yl)imidazolidin-2-one], the IC50 at CDK4/CycD was 0.761 µM; on CDK6/CycD3, 3.3 µM; at CDK2/CycE it was 23 µM; at CDK2/CycA it was 9.7 µM.

As for `C[C@H]1CNC(=O)CN1c1ccnc(Nc2ccc(N3CCN(C)CC3)cn2)n1` [compound 40, (5S)-5-Methyl-4-(2-{[5-(4-methylpiperazin-1-yl)pyridin-2-yl]amino}pyrimidin-4-yl)piperazin-2-one], the IC50 on CDK4/CycD turned out to be 1.7 µM; at CDK6/CycD3, 5.7 µM; against CDK2/CycE it was 71 µM; at CDK2/CycA, 88 µM.

As to `CN1CCN(c2ccc(Nc3nccc(N4CCNC4=O)n3)nc2)CC1` [compound 16, 1-(2-{[5-(4-methylpiperazin-1-yl)pyridin-2-yl]amino}pyrimidin-4-yl)imidazolidin-2-one], the IC50 was 8.1 µM on CDK4/CycD; 3.4 µM at CDK6/CycD3; above 100 µM against CDK2/CycE; above 100 µM against CDK2/CycA; 73 µM at CDK5/p35; 95 µM at CDK5/p25. Further, the IC50 amounted to 29.4 µM at CDK7/CycH/MAT1 and 9.3 µM against CDK9/CycT.

`CN1CCN(c2ccc(Nc3nccc(N4C(=O)N(C)CC45CCCCC5)n3)nc2)CC1` [compound 8, 3-Methyl-1-(2-{[5-(4-methylpiperazin-1-yl)pyridin-2-yl]amino}pyrimidin-4-yl)-1,3-diazaspiro[4.5]decan-2-one]: the IC50 against CDK4/CycD is 3.27 µM; against CDK6/CycD3, 16.2 µM; on CDK2/CycE it was above 100 µM; on CDK2/CycA, above 100 µM; at CDK5/p35 it was above 100 µM; against CDK5/p25, above 100 µM. Also, the IC50 against CDK7/CycH/MAT1 and against CDK9/CycT was above 100 µM throughout.

Turning to `CN1CCN(c2ccc(Nc3nccc(N4C(=O)NCC45CCCCC5)n3)nc2)CC1` [compound 6, 1-(2-{[5-(4-methylpiperazin-1-yl)pyridin-2-yl]amino}pyrimidin-4-yl)-1,3-diazaspiro[4.5]decan-2-one], the IC50 at CDK4/CycD was 1 µM; against CDK6/CycD3, 4.98 µM; at CDK2/CycE it was above 100 µM; against CDK2/CycA, above 100 µM; at CDK5/p35 it was above 100 µM; on CDK5/p25, above 100 µM. For the same compound, the figures for the IC50 against CDK7/CycH/MAT1 and against CDK9/CycT were 95.9 µM and 9.63 µM, respectively.

In the case of `C[C@H]1CNC(=O)N1c1ccnc(Nc2ccc(N3CCN(C)CC3)cn2)n1` [compound 52, (5S)-5-methyl-1-(2-{[5-(4-methylpiperazin-1-yl)pyridin-2-yl]amino}pyrimidin-4-yl)imidazolidin-2-one], the IC50 came to 1.5 µM against CDK4/CycD, 4 µM against CDK6/CycD3, 57 µM against CDK2/CycE and 35.5 µM on CDK2/CycA.

Consider `CC[C@H]1CC(=O)NN1c1ccnc(Nc2ccc(N3CCN(C)CC3)cn2)n1` [compound 56, (S)-5-ethyl-1-(2-((5-(4-methylpiperazin-1-yl)pyridin-2-yl)amino)pyrimidin-4-yl)pyrazolidin-3-one], for which the IC50 on CDK4/CycD is 4 µM; on CDK6/CycD3, 33 µM; at CDK2/CycE, above 100 µM; on CDK2/CycA it was above 100 µM.

Turning to `CN1CCN(c2ccc(Nc3nccc(N4C(c5ccsc5)=NCC45CCCCC5)n3)nc2)CC1` [compound 55, N-(5-(4-methylpiperazin-1-yl)pyridin-2-yl)-4-(2-(thiophen-3-yl)-1,3-diazaspiro[4.5]dec-2-en-1-yl)pyrimidin-2-amine], the concentration for half-maximal inhibition (IC50) against CDK4/CycD, against CDK6/CycD3, against CDK2/CycE, against CDK2/CycA, against CDK5/p35 and against CDK5/p25 was above 100 µM throughout. For the same compound, the IC50 against CDK7/CycH/MAT1 and against CDK9/CycT was above 100 µM throughout.

For the compound `CC(C)C1CC(=O)NN1c1ccnc(Nc2ccc(N3CCN(C)CC3)cn2)n1` (stereo not shown) [compound 28, 5-Isopropyl-1-(2-{[5-(4-methylpiperazin-1-yl)pyridin-2-yl]amino}pyrimidin-4-yl)pyrazolidin-3-one], the IC50 at CDK4/CycD and against CDK6/CycD3 was above 100 µM throughout.
